These results are taken from patent US12180176B2, “Fluorinated empathogens” (priority 2021, dated 2024).

Molecules are shown by their SMILES.

The conditions of data set [1]: human psychoactivity, literature; cited from earlier work.
Data set [2] is described as follows: Metabolic stability in human liver microsomes. Format: in vitro ADME. The source says: Purpose: To determine the metabolic stability of a disclosed compound relative to its corresponding non-fluorinated analog. Metabolic stability assays measure the intrinsic clearance (CLint) of a compound, providing critical data needed to calculate other key pharmacokinetic parameters such as bioavailability and half-life (t1/2).
Methods: A high-throughput assay was used to determine metabolic stability of disclosed compounds and non-fluorinated analogs thereof in human liver microsomes. LC/MS analysis was used to quantify the percent compound remaining after incubation. The half-life (t1/2) was estimated from the slope of the initial linear range of the logarithmic curve of compound remaining (%) versus time, assuming first order kinetics.
On the technique in general: Liver microsomes are vesicles of endoplasmic reticulum, rich in cytochrome P450 enzymes.

Another data set has as its target SERT (Homo sapiens, UniProt P31645). The conditions noted are these: functional assay; cited from earlier work.

Sequence of SERT (P31645 whole entry, species assumed): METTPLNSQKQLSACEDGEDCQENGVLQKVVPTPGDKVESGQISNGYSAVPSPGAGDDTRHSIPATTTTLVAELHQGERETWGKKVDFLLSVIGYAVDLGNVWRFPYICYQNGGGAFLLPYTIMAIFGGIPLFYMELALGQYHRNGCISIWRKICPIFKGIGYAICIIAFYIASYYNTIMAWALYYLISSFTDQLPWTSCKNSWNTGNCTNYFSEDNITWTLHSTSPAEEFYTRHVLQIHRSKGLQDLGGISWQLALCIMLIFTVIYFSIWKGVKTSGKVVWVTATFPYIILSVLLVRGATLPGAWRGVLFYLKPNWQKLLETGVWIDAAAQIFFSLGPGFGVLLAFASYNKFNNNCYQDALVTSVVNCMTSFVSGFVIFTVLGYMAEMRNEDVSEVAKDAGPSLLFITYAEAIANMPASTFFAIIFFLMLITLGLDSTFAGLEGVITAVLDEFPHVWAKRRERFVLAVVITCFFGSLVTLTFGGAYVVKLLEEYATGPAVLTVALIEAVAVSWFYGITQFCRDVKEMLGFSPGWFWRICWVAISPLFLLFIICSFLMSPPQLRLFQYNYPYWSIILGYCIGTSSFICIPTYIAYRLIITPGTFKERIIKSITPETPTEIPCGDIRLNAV

Consider `CC(Cc1ccc2c(c1)OCO2)NCC(F)(F)F` (centres unmarked) [MDTFEA, 3,4-methylenedioxy-N-trifluoroethylamphetamine], for which the “active dose in humans” value in data set [1] is above 500 mg.

Regarding `CC(Cc1ccc2c(c1)OCO2)NCCF.Cl` (centres unmarked) [MDEA-F], the percent compound remaining in data set [2] (Time 0.0) is given as 100.0%; in data set [2] (Time 15.00) it was 81.80%; in data set [2] (Time 30.00), 68.75%; in data set [2] (Time 45.00), 65.35%; in data set [2] (Time 60.00 (one hour of incubation), listed as ASR-1004) it was 42.05%; in data set [2] (Time 60.00 (one hour of incubation), listed as MIDEA-F), 42%. In addition, the “half-life (t1/2)” value in data set [2] (estimated from slope of log % remaining versus time) is recorded as “about 57 minutes”.

In the case of `CC(N)Cc1ccc2c(c1)OC(F)(F)O2` (centres unmarked) [DiFMDA, Difluoromethylenedioxyamphetamine], in data set [1], the “active dose in humans” value is given as above 250 mg. Besides, the SERT affinity entry at SERT is “between that of MDA and MDMA”.

As to `CC(N)Cc1ccc2c(c1)OCO2` (centres unmarked) [MDA, 3,4-methylenedioxyamphetamine], the “active dose in humans” value in data set [1] is 80 to 160 mg.
